Data on ten molecules can be found in article PMC9706920, “Aryloxypropanolamine targets amyloid aggregates and reverses Alzheimer-like phenotypes in Alzheimer mouse models” (Alzheimer's Research & Therapy, 2022).

One series has as its target T1, Aβ(1–42) aggregates (Homo sapiens, UniProt P05067).
T1 construct: made in house; host or cells: chemical synthesis (Fmoc solid phase peptide synthesis)
The series can be described thus: ThT fluorescence Aβ(1–42) disaggregation assay. The series is classed as biochemical. As to conditions: for Decrease of fibrillar Aβ(1–42) aggregates (ThT fluorescence): Aβ(1–42) 25 μM pre-aggregated 37°C 3 days, compound added for additional 3 days, concentration of the printed value not stated; for EC50: pre-aggregated Aβ(1–42) 25 μM, 3 + 3 days, 37°C. Here is the method:
(§1) ThT fluorescence was used to assess the in vitro inhibition of Aβ(1–42) and disaggregation of Aβ(1–42), Aβ(1–40), Aβ(pE3-42), recombinant tau K18, and tau repeats R1, R2, R3, R4 by YIAD compounds. In house synthetic Aβ(1–42) was dissolved in DMSO (1 mM, 100% DMSO) and diluted to 20-fold in deionized water to make 50 μM Aβ(1–42) stocks (5% DMSO). YIAD compounds were first dissolved in DMSO (100 mM, 100% DMSO) and serially diluted with deionized water to make YIAD stocks with concentrations of 1, 10, 100, and 1000 μM (10% DMSO). For the Aβ(1–42) inhibition assay, monomeric Aβ(1–42) stocks and YIAD stocks were co-incubated at 37°C for 3 days. For Aβ(1–42) disaggregation assay, monomeric Aβ(1–42) stocks were preincubated at 37°C for three days to form Aβ(1–42) aggregates, and subsequently, YIAD stocks were added for an additional 3 days. For Aβ(1-40) disaggregation assays, Aβ(1–40) (50 μM, 5% DMSO) was preincubated at 37°C for 3 days to induce aggregation, and co-incubated with YIAD001 and YIAD002 for an additional 3 days. For Aβ(pE3-42) disaggregation assays, in house synthetic Aβ(pE3-42) (50 μM, 5% DMSO) was preincubated at 37°C for 1 day and co-incubated with YIAD002 for an additional 3 days. For tau K18 disaggregation assay, recombinant tau K18 fragments (35 μM) were dissolved in PBS with 0.1 mg/mL of heparin and 100 μM of DTT, then pre-aggregated at 37°C for 3 days. Then, YIAD stocks were added to aggregated K18 fragments for an additional 3 days. For tau repeat disaggregation assays, tau repeats (R1, R2, R3, R4) (35 μM) were dissolved in PBS with 0.1 mg/mL of heparin and 100 μM of DTT, then pre-aggregated at 37°C for 1 day. Then, YIAD002 was added to aggregated repeats for an additional 3 days. Prior to fluorescence intensity measurement, ThT solution (5 μM) was prepared by dissolving ThT, purchased from Sigma-Aldrich (MO, USA) in 50 mM glycine buffer (pH 8.5). To quantify the effect of inhibition and disaggregation, 25 μL of all samples and 75 μL of ThT solution were loaded into a half-area 96-well black plate in triplicate.

The target in another series is T2, Aβ(1–42) (Homo sapiens, UniProt P05067).
T2 construct: Synthesized monomeric Aβ(1–42), […]; […]; IA; made in house; host or cells: chemical synthesis (Fmoc solid phase peptide synthesis)
Nature of the series: ThT fluorescence Aβ(1–42) aggregation inhibition assay. The series is classed as biochemical. The conditions noted are these: for Inhibition of Aβ(1–42) fibrillation (ThT fluorescence): compounds at 0.5, 5, 50, 500 μM co-incubated with monomeric Aβ(1–42) 25 μM, 37°C, 3 days, concentration of the printed value not stated. The procedure:
as §1

A short description of the next series: BBB-PAMPA. The series is classed as in vitro ADME. As to conditions: PAMPA, pH 7.4. Here is the method:
Commercially available Double-Sink PAMPA (Pion® Double sink) assay was performed using a two compartment 96-well microtiter plate and protocols specified by the manufacturer. […] Stock solutions of controls and YIAD002 were dissolved in DMSO (10 mM) and subsequently diluted to 200-fold in pION buffer (pH 7.4) to 50 μM. The donor plate of the PAMPA sandwich was loaded with 50 μM solutions, and after wetting the artificial membrane with BBB lipid solution, the acceptor plate was loaded with acceptor sink buffer. Then, the acceptor plate was placed on the donor plate and incubated at 25°C for 4 h. Compound concentration in the reference, donor, and acceptor plates were measured on a UV plate.
(PAMPA measures passive passage across an artificial lipid membrane.)

A further series deals with 5XFAD mice. The series can be described thus: 6E10 immunohistochemical staining of amyloid plaques in 5XFAD mice after oral administration. The series is classed as in vivo, mouse. As to conditions: 50 mg/kg/day via drinking water, 5 weeks, 4.5-month-old female 5XFAD mice, vs vehicle. Here is the method:
To test the in vivo efficacy of YIAD001 and YIAD002, female 5XFAD mice (n = 25) and female wildtype mice (n = 7) were assessed at the age of 4.5 months. YIAD compounds were dissolved in DMSO and diluted in drinking water to a final concentration of 50 mg/kg/day (5% DMSO, 5% Tween) for oral administration. The three compounds, YIAD001, YIAD002, and YIAD003, were freely administered via drinking water to 4.5-month-old 5XFAD mice (n = 6 for each group) for 5 weeks. As a control, 5% DMSO, 5% Tween in drinking water was provided ad libitum to littermate 5XFAD mice (n = 7) and wildtype mice (n = 7) for 5 weeks.
After the administration period, the mice were deeply anaesthetized with 4% avertin through intraperitoneal injection and transcardially perfused with 0.9% saline. Subsequently, the mice were sacrificed for brain excision. Each collected brain was divided through the mid-sagittal section; the hippocampal and cortical regions were dissected from one half and stored at −80°C for subsequent brain lysates, while the other half was immersed in 4% paraformaldehyde (pH 7.4) for 24 h and 30% sucrose for 48 h at 4°C and subsequently deep-froze at −80°C for immunohistochemistry.
Coronal hippocampal sections of 5XFAD mice brains (35 μm) were cut with a Cryostat (Leica, CM1860) and mounted onto glass slides. Antigen retrieval was performed by submerging slides in 1% SDS and unspecific binding was blocked through incubation in 20% horse serum in PBS for 1 h at RT. Aβ deposits were visualized through immunolabeling by anti-6E10 antibody (1:200 in PBS with 5% horse serum, Biolegend 803003) and detection by fluorescent secondary antibody (1:200 in PBS, IgG Alexa 488). Brain sections were additionally stained with Hoechst 33342. Fluorescent images of the brain sections were taken on a Leica DM2500 fluorescence microscope. Amyloid plaques were quantified using Image-J software (NIH).

One may read the melting point as the temperature of the solid-liquid transition. One may read the EC50 as the concentration needed to bring the measured effect to its halfway point. Usually Papp stands for a coefficient for how fast a substance crosses the barrier. The low end stands for poor permeation, the high end for ready permeation.

T1 sequence (P05067 672-713 limits assumed): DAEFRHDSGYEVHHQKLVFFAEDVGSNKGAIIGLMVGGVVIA
T2 sequence (P05067 672-713 limits assumed): as above

In the case of `COc1ccc(OCC(O)CN2CCCCC2)cc1.Cl` (stereo not shown), the melting point is 169.3 to 169.9 °C.

The molecule `Cl.OC(COc1ccc(Br)cc1)CN1CCOCC1` (stereo not shown) displayed a melting point of 172.1 to 172.7 °C. Still for that read-out and setting: as for `Cl.OC(COc1ccc(Br)cc1)CN1CCCCC1` (stereo not shown), the figure is 178.1 to 178.6 °C. In turn, `CC(C)(C)c1ccc(OCC(O)CN2CCCC2)cc1.Cl` (stereo not shown) [YIAD010, 1-(3-(4-(Tert-butyl)phenoxy)-2-hydroxypropyl)pyrrolidin-1-ium chloride] returned a melting point of 139.9 to 140.4 °C. Also, at Aβ(1–42) aggregates, the “Decrease of fibrillar Aβ(1–42) aggregates (ThT fluorescence)” value came to 83.56% and the concentration for a half-maximal effect (EC50) was found to be 138 µM. Moreover, the “Inhibition of Aβ(1–42) fibrillation (ThT fluorescence)” value at Aβ(1–42) was determined as 75.96%. Molecule `CC(=O)[C@H]1CC[C@H]2[C@@H]3CCC4=CC(=O)CC[C@]4(C)[C@H]3CC[C@]12C` [progesterone, reference compound] showed a Papp at 4 h, 50 μM in “BBB-PAMPA” of 50.9 ×10⁻⁶ cm/s. Consider `Cl.OC(COc1ccc(Br)cc1)CN1CCCC1` (stereo not shown), for which the melting point was in the range of 176.9 to 177.7 °C. In the case of `CC(C)(C)c1ccc(OCC(O)CN2CCOCC2)cc1.Cl` (stereo not shown), the melting point fell in the range of 197.9 to 198.3 °C.

Turning to `CNC(=C[N+](=O)[O-])NCCSCc1ccc(CN(C)C)o1` [ranitidine, reference compound], the “Effective permeability coefficient Pe” value in the series “BBB-PAMPA” (4 h, 50 μM) is listed as 0 10^−6 cm/s. Molecule `COc1ccc(OCC(O)CN2CCOCC2)cc1.Cl` (stereo not shown) [YIAD003, 4-(2-Hydroxy-3-(4-methoxyphenoxy)propyl)morpholin-4-ium chloride] returned a melting point of 160.2 to 160.5 °C. Moreover, in the series with 5XFAD mice, the “Number of 6E10-stained plaques” value was “did not cause any change” and the Plaque area entry is “slight tendency of an increase”. Besides, the “Activity in anti-Aβ screen” value at Aβ(1–42) (inhibitory interaction with Aβ(1–42) aggregation) was “inactive”. `CC(C)(C)c1ccc(OCC(O)CN2CCCCC2)cc1.Cl` (stereo not shown) [YIAD008, 1-(3-(4-(Tert-butyl)phenoxy)-2-hydroxypropyl)piperidin-1-ium chloride] had a melting point of 201.7 to 202.2 °C. For the same molecule, on Aβ(1–42) aggregates, the “Decrease of fibrillar Aβ(1–42) aggregates (ThT fluorescence)” value was determined as 59.89% and the EC50 was 360 µM. Also, the “Inhibition of Aβ(1–42) fibrillation (ThT fluorescence)” value at Aβ(1–42) is recorded as 70.69%.
